The text below walks through data of patent US8011774B2, “Azo dye, colored composition, heat-sensitive transfer recording ink sheet, heat-sensitive transfer recording method, color toner, inkjet ink and color filter” (Fujifilm Corporation, priority 2006, dated 2011).

Common to all, as to assay type: physicochemical
The nature of data set [1]: Solubility of dye when preparing ink sheet dye-providing layer coating composition. Also noted: key: A: The dye easily dissolves.; B: The dye dissolves.; C: The dye is sparingly soluble, but dissolves. Conditions: dye 5.5 parts, polyvinylbutyral resin, methyl ethyl ketone/toluene (1/1) coating composition. On the procedure:
As a support, was used a 6 μm thick polyester film, a back surface of which had been subjected to a heat resistant lubricating processing with a 1 μm thick thermosetting acrylic resin (Lumirror (trade name), a product of Toray). On the front surface of the support, the following dye-providing layer-coating composition was coated by a wire bar coating so that a dry thinness of the dye-providing layer became 1 μm. Thus, Ink sheet 1 was prepared.
Solubility of these dyes contained in these ink sheets were evaluated according to the following three grades;
A: The dye easily dissolves.
C: The dye is sparingly soluble, but dissolves.

Data set [2] is described as follows: Light stability (light resistance) of transferred dye image under Xenon light. The conditions noted are these: Xenon light 17,000 lux, 7 days; residual ratio of Status A reflection density 1.0. On the procedure:
Next, each of the thus image-recorded thermal transfer image-receiving material was exposed to Xenon light (17,000 lux) for 7 days to examine light stability (light resistance) of the dye image. Status A reflection densities after exposure were measured in the portions indicating status A reflection density of 1.0. A stability of the image was evaluated in terms of a residual ratio (percentage) based on the reflection destiny before exposure according to the following three grades:
A: 80% or more, but 100% or less
B: 60% or more, but […]

Data set [3] is described as follows: Deposition of dye with lapse of time in the ink sheet, examined by eye. Conditions: deposition of dye with a lapse of time in the ink sheet. Set-up: key: A: No precipitation is observed.; B: Precipitation is slightly observed.; C: Precipitation is apparently observed. An excerpt:
Further, deposition of dyes with a lapse of time in the ink sheet was examined by a native eye, thereby to evaluate based on the following three grades:
A: No precipitation is observed.
B: Precipitation is slightly observed.
C: Precipitation is apparently observed.

A short description of data set [4]: Maximum absorption wavelength of absorption spectrum in ethyl acetate solution. Conditions: 1×10^−6 mol/L, optical path length 10 mm. On the procedure: A mixture of 3.53 g of Intermediate (7a) (0.01 mol), 2.76 g of potassium carbonate (0.02 mol) and dimethylacetamide (15 ml) was stirred at 0° C. To the mixture was gradually dropped 4.23 g (0.03 mol) of methyl iodide. After stirring for 3 hours at room temperature, 50 ml of water was added thereto. After extraction with 50 ml of ethyl acetate, the extracted solution was washed with saturated brine. Then, the extracted solution was concentrated with a rotary evaporator. Thus-obtained residue was purified using a silica gel chromatography (developing solvent: ethyl acetate/hexane=1/4, v/v). A yellow powder of Exemplified compound (7) was obtained. Yield: 3.01 g (82%), Melting Point: 192° C. λmax (ethyl acetate solution) of the Exemplified compound (7) was 442 nm.
Exemplified compounds (1), (5), (8), (9), (10), (13) and (23) were synthesized in the manner described above. In Table 1 shown below, are indicated the maximum absorption wavelength in each of absorption spectra of the thus-obtained Exemplified compounds (1), (5), (8), (9), (10), (13) and (23) in an ethyl acetate solution (Density: 1×10^−6 mol/L, Optical path length: 10 mm) and melting points of these compounds, together with the Exemplified compounds (7) obtained in the Synthesis Examples.

In the case of `Cc1nn2nc(C(C)(C)C)c(N=Nc3c(C#N)c(C(C)(C)C)nn3C)c2n1C` [Dye (1)], the Solubility result in data set [1] is on record as “A”. Besides, in data set [2], the Light resistance result was “A (80% or more, but 100% or less)”. Besides, the Precipitation entry in data set [3] is reported as “A”. Also, the Maximum absorption wavelength in data set [4] is 434 nm.
Regarding `Cc1nn(C)c2c(N=Nc3c(C#N)c(C(C)(C)C)nn3C)c(C(C)(C)C)nn12` [Dye (7)], in data set [1], the Solubility entry is “A”. In data set [2], the Light resistance result is on record as “A (80% or more, but 100% or less)”. The Precipitation entry in data set [3] is “A”. In data set [4], this compound registered a Maximum absorption wavelength of 442 nm.
Turning to `CCn1nc(C(C)(C)C)c(C#N)c1/N=N/c1c(C(C)(C)C)nn2c(C)nn(CC)c12` [Dye (8)], the Solubility result in data set [1] was “A”. In addition, in data set [2], the Light resistance entry was “A (80% or more, but 100% or less)”. For the same compound, in data set [3], the Precipitation result is “A”. In addition, the Maximum absorption wavelength in data set [4] stood at 441 nm.
With `CCc1nn(C)c2c(/N=N/c3c(C#N)c(C(C)(C)C)nn3C)c(C(C)(C)C)nn12` [Dye (9)], the Solubility entry in data set [1] is given as “A”. The Light resistance entry in data set [2] is “A (80% or more, but 100% or less)”. In addition, the Precipitation result in data set [3] was “A”. In addition, the Maximum absorption wavelength in data set [4] is 441 nm.
Regarding `CC(C)c1nn(C)c2c(/N=N/c3c(C#N)c(C(C)(C)C)nn3C)c(C(C)(C)C)nn12` [Dye (10)], the Solubility entry in data set [1] is listed as “A”. Besides, the Light resistance result in data set [2] is reported as “A (80% or more, but 100% or less)”. The Precipitation entry in data set [3] is on record as “A”. Also, the Maximum absorption wavelength in data set [4] stood at 443 nm.
Turning to `Cc1nsc(/N=N/c2c(C(C)(C)C)nn3c(C(C)C)nn(C)c23)c1C#N` [Dye (13)], in data set [4], the Maximum absorption wavelength came out at 471 nm.
In the case of `Cc1nn(C)c2c(/N=N/c3nc4ccccc4n3C)c(C(C)(C)C)nn12` [Dye (14)], the Solubility entry in data set [1] was “A”. The Light resistance entry in data set [2] is reported as “A (80% or more, but 100% or less)”. In data set [3], the Precipitation result is “A”.
On to `CCSc1nnc(/N=N/c2c(C(C)(C)C)nn3c(C(C)C)nn(CC)c23)s1` [Dye (23)], for which the Solubility entry in data set [1] is “A”. Also, in data set [2], the Light resistance entry is “A (80% or more, but 100% or less)”. The Precipitation result in data set [3] is recorded as “A”. Moreover, the Maximum absorption wavelength in data set [4] is given as 449 nm.
Consider `CCSc1nnc(/N=N/c2c(C(C)(C)C)nn3nc(C(C)C)n(C)c23)s1` [Dye (28)], for which the Solubility result in data set [1] is “A”. The Light resistance entry in data set [2] is “A (80% or more, but 100% or less)”. Further, in data set [3], the Precipitation entry is reported as “A”.
For the compound `CCSc1nnc(N=Nc2c(C(C)(C)C)nn3c(C(C)C)n[nH]c23)s1` [Dye for Comparison 1, reference compound], the Solubility entry in data set [1] is recorded as “B”. Further, the Light resistance entry in data set [2] is given as “B (60% or more, but less than 100%)”. In addition, the Precipitation result in data set [3] is “B”.
`CCN(CCOc1ccc(C2CCCCC2)cc1)c1ccc(C=C(C#N)C#N)cc1` [Dye for Comparison 3, reference compound]: the Solubility result in data set [1] is given as “A”. For the same compound, the Light resistance entry in data set [2] is given as “C (less than 60%)”. Moreover, the Precipitation result in data set [3] is “A”.
